Results published in patent US12570655B2, “Cysteine covalent modifiers of AKT1 and uses thereof” (Terremoto Biosciences, Inc., priority 2023, dated 2026).

Key:
Format in all cases: cell-based
AKT1 E17K = molecular target: T1, AKT1 E17K (Homo sapiens, UniProt P31749, E17K); test: Live cell AKT1 E17K target engagement by NanoBRET competitive probe displacement; settings: HEK293 cells transfected with kinase-NanoLuciferase fusion, 2 h at 37° C.
T1 construct: expressed in transfected cells; host or cells: HEK293
Summary of the method: (§1)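 Luminescence ratio 600/460 nm served as readout after HEK293 cells bearing transiently expressed kinase–NanoLuciferase fusions were exposed 2 h at 37 °C to test compound alongside an ATP-competitive fluorescent tracer near EC50. Extracellular signal was quenched by a luciferase inhibitor.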

AKT2 = molecular target: T2, AKT2 (Homo sapiens, UniProt P31751); test: Live cell AKT2 target engagement by NanoBRET competitive probe displacement; settings: HEK293 cells transfected with kinase-NanoLuciferase fusion, 2 h at 37° C.
T2 construct: expressed in transfected cells; host or cells: HEK293
Summary of the method: as §1

AKT1 WT = molecular target: T3, AKT1 WT (Homo sapiens, UniProt P31749); test: Live cell AKT1 WT target engagement by NanoBRET competitive probe displacement; settings: HEK293 cells transfected with kinase-NanoLuciferase fusion, 2 h at 37° C.
T3 construct: expressed in transfected cells; host or cells: HEK293
Summary of the method: as §1

[1] = system: LAPC4 prostate cancer cells; test: Antiproliferative effects in LAPC4 cells (CellTiter Glo); settings: Homo sapiens, LAPC4, 72 h, LAPC4 cells (AKT1 E17K allele), read-out: LAPC4 proliferation IC50
Summary of the method: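 IC50 values reflect 72 h compound treatment of cells plated at 1,000 per well, with CellTiter Glo luminescence as the viability read-out.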

T1 sequence (P31749 whole entry E17K, the tested form may be a part): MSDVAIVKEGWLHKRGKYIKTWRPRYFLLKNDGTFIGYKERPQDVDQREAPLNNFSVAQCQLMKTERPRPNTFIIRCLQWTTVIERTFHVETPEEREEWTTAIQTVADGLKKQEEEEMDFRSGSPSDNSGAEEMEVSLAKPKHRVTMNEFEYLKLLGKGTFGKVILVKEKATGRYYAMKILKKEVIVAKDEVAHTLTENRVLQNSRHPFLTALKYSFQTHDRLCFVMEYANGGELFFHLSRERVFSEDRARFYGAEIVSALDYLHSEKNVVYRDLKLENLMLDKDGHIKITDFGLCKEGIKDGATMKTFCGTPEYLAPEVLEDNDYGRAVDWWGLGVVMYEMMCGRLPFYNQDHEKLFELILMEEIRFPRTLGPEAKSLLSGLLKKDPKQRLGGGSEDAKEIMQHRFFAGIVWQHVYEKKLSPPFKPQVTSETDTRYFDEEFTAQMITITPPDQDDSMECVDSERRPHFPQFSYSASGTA
T3 sequence (P31749 whole entry, the tested form may be a part): as the sequence (P31749 whole entry E17K, the tested form may be a part) above, with K17E counted along it
T2 sequence (P31751 whole entry, the tested form may be a part): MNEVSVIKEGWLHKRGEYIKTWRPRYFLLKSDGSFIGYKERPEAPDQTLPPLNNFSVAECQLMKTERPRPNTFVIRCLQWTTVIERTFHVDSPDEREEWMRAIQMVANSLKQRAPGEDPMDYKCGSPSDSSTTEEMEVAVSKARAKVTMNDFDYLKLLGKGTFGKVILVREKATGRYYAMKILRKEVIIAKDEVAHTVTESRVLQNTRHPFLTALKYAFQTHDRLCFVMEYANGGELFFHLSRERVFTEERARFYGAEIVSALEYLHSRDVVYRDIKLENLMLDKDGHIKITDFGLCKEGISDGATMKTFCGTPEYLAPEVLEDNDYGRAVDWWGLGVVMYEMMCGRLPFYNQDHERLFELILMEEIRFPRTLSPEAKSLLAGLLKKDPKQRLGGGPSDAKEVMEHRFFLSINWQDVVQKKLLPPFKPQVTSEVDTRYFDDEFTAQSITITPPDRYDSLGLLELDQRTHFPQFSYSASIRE

| Compound | IC50 (AKT1 E17K) [nM] | IC50 (AKT2) [nM] | IC50 (AKT1 WT) [nM] | IC50 [1] [nM] |
| --- | --- | --- | --- | --- |
| C=CC(=O)N1CCC(CN[C@H]2CCc3cc(-n4c(-c5cccnc5N)nc5ccc(-n6cccn6)nc54)ccc32)(OC)CC1 [Example 183, 1-[4-({[(1S)-5-[2-(2-aminopyridin-3-yl)-5-(pyrazol-1-yl)imidazo[4,5-b]pyridin-3-yl]-2,3-dihydro-1H-inden-1-yl]amino}methyl)-4-methoxypiperidin-1-yl]prop-2-en-1-one] | 99.4 | 633 | 1260 | 1600 |
| C=CC(=O)N1CCC(F)(CN[C@H]2CCc3cc(-n4c(-c5cccnc5N)nc5ccc(-n6cccn6)nc54)ccc32)CC1 [Example 184, (S)-1-(4-(((5-(2-(2-aminopyridin-3-yl)-5-(1H-pyrazol-1-yl)-3H-imidazo[4,5-b]pyridin-3-yl)-2,3-dihydro-1H-inden-1-yl)amino)methyl)-4-fluoropiperidin-1-yl)prop-2-en-1-one] | 17.8 | 27.2 | 104 | 184 |
| CC(C)=CC(=O)N1CCC(N[C@H]2CCc3cc(-n4c(-c5cccnc5N)nc5ccc(-n6cccn6)nc54)ccc32)CC1 [Example 185, 1-(4-{[(1S)-5-[2-(2-aminopyridin-3-yl)-5-(pyrazol-1-yl)imidazo[4,5-b]pyridin-3-yl]-2,3-dihydro-1H-inden-1-yl]amino}piperidin-1-yl)-3-methylbut-2-en-1-one] | 53.2 | 912 | 2170 | 4130 |
| C=CC(=O)N1CCC(N[C@H]2CCc3cc(-n4c(-c5cccnc5N)nc5ccc(N6CCC(F)(F)CC6)nc54)ccc32)CC1 [Example 186, 1-(4-{[(1S)-5-[2-(2-aminopyridin-3-yl)-5-(4,4-difluoropiperidin-1-yl)imidazo[4,5-b]pyridin-3-yl]-2,3-dihydro-1H-inden-1-yl]amino}piperidin-1-yl)prop-2-en-1-one] | 30.6 | 954 | 877 | 801 |
| C=CC(=O)N1CCC(N[C@H]2CCc3cc(-n4c(-c5cccnc5N)nc5ccc(-c6cnn(C(F)F)c6)nc54)ccc32)CC1 [Example 187, 1-(4-{[(1S)-5-[2-(2-aminopyridin-3-yl)-5-[1-(difluoromethyl)pyrazol-4-yl]imidazo[4,5-b]pyridin-3-yl]-2,3-dihydro-1H-inden-1-yl]amino}piperidin-1-yl)prop-2-en-1-one] | 7.3 | 28.7 | 46.4 | 64.4 |
| C=CC(=O)N1CCC(N[C@H]2CCc3cc(-n4c(-c5cccnc5N)nc5ccc(N6CC[C@@H](F)C6)nc54)ccc32)CC1 [Example 194, 1-(4-{[(1S)-5-[2-(2-aminopyridin-3-yl)-5-[(3R)-3-fluoropyrrolidin-1-yl]imidazo[4,5-b]pyridin-3-yl]-2,3-dihydro-1H-inden-1-yl]amino}piperidin-1-yl)prop-2-en-1-one] | 13.8 | 142 | 446 | 310 |
| C=CC(=O)N1CCC(N[C@H]2CCc3cc(-n4c(-c5cccnc5N)nc5ccc(C6CCC6)nc54)ccc32)CC1 [Example 195, 1-(4-{[(1S)-5-[2-(2-aminopyridin-3-yl)-5-cyclobutylimidazo[4,5-b]pyridin-3-yl]-2,3-dihydro-1H-inden-1-yl]amino}piperidin-1-yl)prop-2-en-1-one] | 7.45 | 80.8 | 415 | 319 |
| Nc1ncccc1-c1nc2ccc(-n3cccn3)nc2n1-c1ccc2c(c1)CC[C@@H]2NC1CCN(C(=O)CCl)CC1 [Example 197, 1-(4-{[(1S)-5-[2-(2-aminopyridin-3-yl)-5-(pyrazol-1-yl)imidazo[4,5-b]pyridin-3-yl]-2,3-dihydro-1H-inden-1-yl]amino}piperidin-1-yl)-2-chloroethanone] | 18.9 | 28.6 | 121 | 469 |
